Data reported in PMC6400181, “Calixarene-mediated assembly of a small antifungal protein” (IUCrJ, 2019).

Columns and labels:
cytochrome c = test system: cytochrome c; set-up: method as in Rennie et al., 2017; settings: relative to sclx4, ref Rennie et al., 2017; cited from earlier work
[1] = target: PAF (Penicillium antifungal protein) (Penicillium chrysogenum, UniProt Q01701); experiment: Isothermal titration calorimetry of PAF–sclxn complexation; format: binding; settings: ITC, median (2.5% quantile, 97.5% quantile)
Chain of PAF (Penicillium antifungal protein) (Q01701 entry or part of it): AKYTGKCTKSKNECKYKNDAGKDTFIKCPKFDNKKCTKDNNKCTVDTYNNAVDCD
Method: PAF samples were dissolved in 10 mM sodium phosphate pH 6.0. The same buffer was used to dilute stocks of sclx4 (7.1 mM, PAF 0.5 mM), sclx6 (3.6 mM, PAF 0.5 mM) and sclx8 (2.5 mM, PAF 0.3 mM) to the required concentration. Samples were degassed prior to the titration. Measurements were made at 25°C using a Microcal ITC-200 instrument. Titrations were performed in duplicate with similar trends between each replicate. A single replicate from each calixarene was used for model fitting. Separate titrations of each calixarene into buffer confirmed that the heats of dilution were small, exothermic and approximately constant.
NITPIC (Keller et al., 2012[▸]) was used for baseline correction and integration of the thermograms. Pytc (Duvvuri et al., 2018[▸]) was used to perform model fitting and parameter estimation. The system of equations relating the independent variables of the model (total concentrations) to the experimental observations (heat generated during injections) for the single-site and bidentate-ligand models are as follows.
Single-site model, [drawing 1] [drawing 2] [drawing 3] where [P T]i is the total cell concentration of protein at the ith injection (independent variable), [L T]i is the total cell concentration of ligand at the ith injection (independent variable), K 1 is the equilibrium association constant (fit parameter), ΔH is the enthalpy (fit parameter) associated with K, V cell is the volume of the cell, vi is the volume of the ith injection, qi is the heat generated from the ith injection (dependent variable) and q dil is the heat of dilution (fit parameter, assumed to be constant)
Bidentate-ligand model, [drawing 4] [drawing 5] [drawing 6] where K 1 and K 2 are the microscopic equilibrium association constants (fit parameters), ΔH 1 and ΔH 2 are the enthalpies (fit parameters) associated with K 1 and K 2, respectively
The expressions for mass balance of the protein and ligand can be represented by equations (1) or (4). Equation (2) or (5) can be used to define the equilibrium constants. For the bidentate ligand model, equation (5) was solved numerically (the Levenberg–Marquardt algorithm) to yield the free-protein ([P]i) and free-ligand ([L]i) concentrations. The free concentrations were used to compute the concentrations of the other states via the equilibrium equations. The heat generated from a given injection was determined using either equations (3) or (6). Parameters were constrained to physically reasonable bounds (e.g. K 1 and K 2 values between 10^2 and 10^10 M ^−1) and best-fits were obtained by maximum likelihood starting from a range of initial estimates. Parameter errors and correlations were estimated using a Bayesian approach (Markov chain Monte Carlo simulations). The error for each integrated heat was determined using NITPIC (Keller et al., 2012[▸]).
Isothermal titration calorimetry was used to characterize the PAF–sclxn binding affinities and stoichiometries (Fig. 7 ▸). The data were fitted to a single-site or a bidentate-ligand model. The latter model describes a bidentate ligand that can bind two protein molecules and was necessary to describe the obviously biphasic data for sclx8. The choice of this model is supported by the observation of a PAF–sclx8–PAF dimer in the crystal structure, and by the spectral broadening in the NMR experiments. All of the fit parameters were well determined by the data (Table 1 ▸), with parameter errors assessed by Bayesian methods (Patil et al., 2010[▸]).

[2] = single-site model, 10 mM sodium phosphate pH 6.0, 25°C
[3] = bidentate-ligand model, binding the first molecule of PAF (K1), pH 6.0, 25°C
[4] = bidentate-ligand model, binding the second molecule of PAF (K2), pH 6.0, 25°C
[5] = bidentate-ligand model, first molecule of PAF (ΔH1), pH 6.0, 25°C
[6] = bidentate-ligand model, first molecule of PAF, pH 6.0, 25°C
[7] = bidentate-ligand model, second molecule of PAF (ΔH2), pH 6.0, 25°C
[8] = bidentate-ligand model, second molecule of PAF, pH 6.0, 25°C

Row | Kd [1, 2] | TΔS [1, 2] | ΔH [1, 2] | Kd [1, 3] | Kd [1, 4] | ΔH [1, 5] | TΔS [1, 6] | ΔH [1, 7] | TΔS [1, 8] | Structure (SMILES) | increase in affinity (with respect to sclx4) (cytochrome c)
1 |  |  |  |  |  |  |  |  |  | O=P(O)(O)c1cc2c(O)c(c1)Cc1cc(P(=O)(O)O)cc(c1O)Cc1cc(P(=O)(O)O)cc(c1O)Cc1cc(P(=O)(O)O)cc(c1O)Cc1cc(P(=O)(O)O)cc(c1O)Cc1cc(P(=O)(O)O)cc(c1O)C2 [pclx6, phosphonato-calix[6]arene] | approximately tenfold
2 | 107 µM | −5.6 (0.2, 0.2) kJ mol^−1 | −16.9 (0.1, 0.1) kJ mol^−1 |  |  |  |  |  |  | O=S(=O)(O)c1cc2c(O)c(c1)Cc1cc(S(=O)(=O)O)cc(c1O)Cc1cc(S(=O)(=O)O)cc(c1O)Cc1cc(S(=O)(=O)O)cc(c1O)C2 [sclx4] | 
3 | 15.4 µM | −0.7 (0.2, 0.2) kJ mol^−1 | −28.2 (0.2, 0.1) kJ mol^−1 | 47.8 µM | 45.8 µM | −9.2 (0.1, 0.2) kJ mol^−1 | −15.4 (0.4, 0.3) kJ mol^−1 | −20.1 (0.4, 0.4) kJ mol^−1 | −4.6 (0.6, 0.6) kJ mol^−1 | O=S(=O)(O)c1cc2c(O)c(c1)Cc1cc(S(=O)(=O)O)cc(c1O)Cc1cc(S(=O)(=O)O)cc(c1O)Cc1cc(S(=O)(=O)O)cc(c1O)Cc1cc(S(=O)(=O)O)cc(c1O)Cc1cc(S(=O)(=O)O)cc(c1O)C2 [sclx6] | 
4 |  |  |  | 10.6 µM | 33.5 µM | −3.5 (0.3, 0.3) kJ mol^−1 | −24.8 (0.3, 0.3) kJ mol^−1 | −36.0 (1.7, 1.4) kJ mol^−1 | 10.5 (1.8, 2.1) kJ mol^−1 | O=S(=O)(O)c1cc2c(O)c(c1)Cc1cc(S(=O)(=O)O)cc(c1O)Cc1cc(S(=O)(=O)O)cc(c1O)Cc1cc(S(=O)(=O)O)cc(c1O)Cc1cc(S(=O)(=O)O)cc(c1O)Cc1cc(S(=O)(=O)O)cc(c1O)Cc1cc(S(=O)(=O)O)cc(c1O)Cc1cc(S(=O)(=O)O)cc(c1O)C2 [sclx8, Sulfonato-calix[8]arene] | 
